The source made the active and inactive calls.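 The calls were made as follows: active = compounds giving half or more protection of infected cells from virus-caused growth loss, again on retest; inactive = the rest.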
Test system: CEM cells HIV-1 protection, formazan growth assay
Experiment: NCI AIDS Antiviral Assay
Conditions: for IC50: measured here: growth of uninfected CEM cells
How it was run: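 Human CEM cells, uninfected and HIV-1-infected, exposed to five drug concentrations; growth measured by soluble formazan assay and scored as percent protection from infection, with protecting compounds retested.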

| Structure (SMILES) | outcome | EC50 | IC50 |
| --- | --- | --- | --- |
| COc1cc2c(cc1O)C(Cc1ccc(Oc3cc(C[C@H]4c5cc(OC)c(OC)cc5CCN4C)ccc3OC)cc1)N(C)CC2 (stereo not given in full) | inactive | – | – |
| CCN(CCC#N)C(=O)Nc1ccccc1 | – | > 200 µM | > 200 µM |
| C=CCn1c(=O)c(C(=O)NC(=O)OCC)cn(C2CCCCC2)c1=O | – | > 145 µM | > 145 µM |
| ON=C(C1CC1)C1CC1 | – | > 200 µM | > 200 µM |
| Cc1ccc2nc3c(C)c(Cl)c(=O)cc-3sc2c1 | – | > 19.1 µM | 16.2 µM |
| OC[C@H]1C[C@@H]2Cc3ccccc3N2N1 | – | > 200 µM | > 200 µM |
| O=C(O)/C=C/c1ccc(Oc2ccccc2C(=O)O)o1 | – | > 49 µM | > 49 µM |
| CC(=O)O[C@@H]1C2CCC3C(CC[C@@]4(C)C3CC[C@@H]4C(C)N(C)C)[C@@]2(C)C[C@H](O)[C@@H]1NC(=O)c1ccccc1 (stereo not given in full) | – | > 1.38 µM | > 1.38 µM |
| COc1cc(OC)c(C2=NOC(n3c4ccccc4c4ccccc43)C2)c(OC)c1 (stereo not given) | inactive | – | – |
| Cc1ccc(OCC2OC(n3cnc4c(Cl)nc(Nc5cc(Cl)cc(Cl)c5)nc43)CC2Oc2ccc(C)cc2)cc1 (stereo not given) | – | > 200 µM | > 200 µM |
| CCO/C=C1\N=C(c2ccccc2Br)OC1=O | – | > 316 µM | > 316 µM |
| COc1ccc(/C=C/C(=O)C(C)(C)CN2CCCCC2)cc1 | – | > 933 µM | 10.5 µM |
| Nc1c(C(=O)N/N=C/c2ccccc2)sc(=S)n1-c1ccccc1 | – | > 4.07 µM | > 4.07 µM |
| CN(C)c1ccc(/C=C(\C#N)c2ccccc2)cc1 | – | > 5.89 µM | – |
| CCC(C)(CC(=O)O)CC(=O)OC[C@]12CC[C@@H](C(C)C)[C@@H]1[C@H]1CC[C@@H]3[C@@]4(C)CC[C@H](OC(=O)CC(C)(CC)CC(=O)O)C(C)(C)[C@@H]4CC[C@@]3(C)[C@]1(C)CC2 (stereo not given in full) | – | > 200 µM | 7.08 µM |
| OCC1=C[C@@H](O)[C@@H]2C=CO[C@@H](OC3OC(CO)C(O)C(O)C3O)[C@H]12 (stereo not given in full) | – | > 724 µM | > 724 µM |
| CC(=O)/C(=C\N1CCNC1=S)C(=O)Nc1ccccc1 | – | > 200 µM | > 200 µM |
| O=C(Cc1nc2ccccc2s1)C(=O)Nc1cccc(Cl)c1 | inactive | – | – |
| NC(CCP(=O)(O)CCC1C=CC=CC1)C(=O)O (stereo not given) | – | > 200 µM | > 200 µM |
| CSc1nc(NC2OCC(OC(C)=O)C(OC(C)=O)C2OC(C)=O)c2c(n1)OCC2=O (stereo not given) | inactive | – | – |
| COC[C@H]1OC(=O)c2coc3c2[C@@]1(C)C1=C(C3=O)[C@@H]2CCC(=O)[C@@]2(C)C[C@H]1OC(C)=O | inactive | – | – |
| COc1ccc2[nH]c3c(c2c1)[C@H](c1ccccc1)C[C@@H]1C(=O)N(c2ccccc2)C(=O)[C@H]31 | inactive | – | – |

| Structure (SMILES) | outcome | EC50 | IC50 |
| --- | --- | --- | --- |
| CCNCC(=O)O[C@]1(CC)C(=O)OCc2c1cc1n(c2=O)Cc2cc3ccccc3nc2-1 | – | > 10 µM | 0.0708 µM |
| CC1(CN2CCCCC2)COC(c2ccccc2)(c2ccccc2)OC1 | – | > 200 µM | 29.5 µM |
| CC(=O)Nc1ccc(-c2nnc(SCC(=O)Nc3ccccc3[N+](=O)[O-])o2)cc1 | – | > 24 µM | > 24 µM |
| S=C1CC(c2ccc(Sc3ccccc3)cc2)=Nc2ccccc2N1 | – | > 200 µM | 75.9 µM |
| COc1cccc(N2C(=O)[C@H]3[C@H]4CC(C(C)(C)C)CC[C@H]4c4c([nH]c5ccccc45)[C@H]3C2=O)c1 (stereo not given in full) | – | 18.2 µM | 26.9 µM |
| c1ccc(-c2nnc3sc4ccccc4n23)cc1 | – | > 200 µM | > 200 µM |
| O=NC1C(Cl)C2CC1C1COCC21 (stereo not given) | – | > 1230 µM | > 1230 µM |
| CSCCCNC(=O)c1csc(-c2csc(CCN)n2)n1 | – | > 661 µM | 85.1 µM |
| COc1ccccc1N1CCN(S(=O)(=O)c2ccc(Cl)cc2)C1=N | – | > 200 µM | 77.6 µM |
| Nc1ncnc2c1S(=O)(=O)NCN2 | – | > 178 µM | > 178 µM |
| CCN(CC)C(=S)/N=C(\SC(=S)N(CC)CC)c1ccccc1 | – | > 132 µM | 52.5 µM |
| N#CCCN(C1=NN(C(=O)CC(=O)Nc2ccccc2Cl)C(c2ccccc2)C1)c1ccc(Cl)cc1 (stereo not given) | – | > 3.89 µM | > 3.89 µM |
| CO/C=C/C=C(\C#N)C(=O)OC | – | 174 µM | > 200 µM |
| CC(=O)C1(N=Nc2ccc(S(=O)(=O)Nc3onc(C)c3C)cc2)CCOC1=O (stereo not given) | – | > 200 µM | > 200 µM |
| O=C(CC(C(=O)c1ccsc1)c1cccs1)c1ccccc1 (stereo not given) | – | > 200 µM | 49 µM |
| CC(C)=CC1CC(=[N+]=[N-])C(=O)C1(C)C (stereo not given) | – | > 186 µM | > 186 µM |
| CN1C(CC(O)(c2ccccc2)c2ccccc2)CCCC1CC(O)(c1ccccc1)c1ccccc1 (stereo not given) | – | > 200 µM | 57.5 µM |
| COc1ccc2oc(=N)c(C(=O)Nc3ccccc3)cc2c1 | – | > 200 µM | 12 µM |
| CCN(CC)CCNC(=O)C(O)(c1ccccc1)c1ccccc1 | – | > 200 µM | > 200 µM |
| O=C(NNc1nc2cccnc2n2ccnc12)c1cnccn1 | – | > 1 µM | 0.135 µM |
| Cc1cccc(-n2cc(C#N)c3c(C)cc(C)nc32)c1 | – | > 100 µM | > 100 µM |
| COC1CC(OC)C(O)C(CO)O1 (stereo not given) | inactive | – | – |

| Structure (SMILES) | outcome | EC50 | IC50 |
| --- | --- | --- | --- |
| CN(C)C(=S)/N=C1\SC(=Nc2ccccc2)C(=Nc2ccccc2)N1c1ccc([N+](=O)[O-])cc1 | – | > 200 µM | 138 µM |
| Cc1ccc(NC(=O)CCC(=O)C2Cc3ccccc3C2=O)cc1C (stereo not given) | – | > 741 µM | 724 µM |
| CC1(c2nc3ccccc3[nH]2)CCC(C(=O)O)C(C)(C)O1 (stereo not given) | – | > 200 µM | 151 µM |
| COC(=O)C1Cc2c([nH]c3ccccc23)-c2[nH]c3ccccc3c2CC(NC(C)=O)C(=O)NCC(=O)N1 (stereo not given) | – | > 200 µM | > 200 µM |
| O=C(c1nc2ccc(Cl)cc2[nH]c1=O)C(O)c1cccc([N+](=O)[O-])c1 (stereo not given) | – | > 186 µM | 12 µM |
| CCCCCCCCCCCCCCCCc1c(C(=O)OC)[nH]c(=S)[nH]c1=O | – | > 3.55 µM | > 3.55 µM |
| CCC1=CCN(c2ccc(C)cc2)OC1c1ccc(OC)cc1 (stereo not given) | – | > 32.4 µM | > 32.4 µM |
| CC(C)CC(NC(=O)C(Cc1ccccc1)NC(=O)CNC(=O)CNC(=O)C(N)Cc1ccc(O)cc1)C(=O)NC1C(O)OC(CO)C(O)C1O (stereo not given) | – | > 2190 µM | > 2190 µM |
| COC(=O)C(/C(=N\NC(N)=S)C(=O)Nc1ccccc1[N+](=O)[O-])c1cnc2ccccc2n1 (stereo not given) | – | > 145 µM | > 145 µM |
| O=C1C2N=NN(c3ccccc3)C2C(=O)N1c1ccccc1 (stereo not given) | – | 41.7 µM | > 200 µM |
| COc1cc(N=Nc2cc(NC(C)=O)c(N=Nc3ccc(S(=O)(=O)O)cc3)cc2S(=O)(=O)O)c(C)cc1N=Nc1cc(OC)c(NC(=O)c2ccc(N)cc2)cc1C | – | 4.57 µM | 191 µM |
| O=c1c2ccccc2nc(/C=C(\O)c2ccccc2)n1-c1ccccc1Cl | inactive | – | – |
| COc1ccc(C(NS(=O)(=O)c2ccc(C)cc2)c2c(C(CBr)OC)c3ccccc3n2S(=O)(=O)c2ccccc2)cc1OC (stereo not given) | – | > 151 µM | 31.6 µM |
| Cc1ccc(/C(=C\C(=O)C(=O)NC23CC4CC(CC(C4)C2)C3)Sc2ccccc2)cc1 | – | > 200 µM | 117 µM |
| O=c1[nH]c(=O)n(COCc2ccccc2)cc1Nc1ccc(Br)cc1 | – | > 200 µM | > 200 µM |
| O=c1nc2sc3ccc4ccccc4c3n2[nH]c1=O | – | > 47.9 µM | > 47.9 µM |
| COc1ccc2c(c1)OC(=O)C(S(=O)(=O)c1ccccc1)C2 (stereo not given) | – | > 295 µM | > 295 µM |
| O=C1CSC(c2ccc(Cl)cc2)N1N1C(=O)CSC1c1ccc(Cl)cc1 (stereo not given) | – | > 151 µM | > 151 µM |
| CC12C(=O)OC(=O)C1(C)C1C=CC2O1 (stereo not given) | – | > 200 µM | 132 µM |
| CS(=O)(=O)N(CCC#N)c1ccc(C=O)cc1 | – | > 102 µM | > 102 µM |
| O=C(N[C@@H](CSSC[C@H](NC(=O)OCc1ccccc1)C(=O)O)C(=O)O)OCc1ccccc1 | – | > 200 µM | 74.1 µM |
| CCOP(=O)(OCC)/C(=C/c1cccs1)CC(C)=O | – | > 200 µM | > 200 µM |

| Structure (SMILES) | outcome | EC50 | IC50 |
| --- | --- | --- | --- |
| COC12CCCN1c1ccn(Cc3ccccc3)c(=O)c1C2=O (stereo not given) | inactive | – | – |
| Cc1ccccc1Nc1nc(NNC(=O)Cc2ccccc2)nc(NNC(=O)c2ccncc2)n1 | – | 155 µM | 407 µM |
| CCN1CN(c2ccccc2)C2(CCN(CCCSc3ccc(F)cc3)CC2)C1=O | – | > 200 µM | 10 µM |
| NC(=O)CNC(=O)c1ccccc1SC(=O)CCCC[n+]1ccccc1 | – | 1.74 µM | 178 µM |
| C[CH2][Sn]([CH2]C)([O]C(=O)c1ccccc1OC)[O][Sn]([CH2]C)([CH2]C)[O]C(=O)c1ccccc1OC | – | > 38.9 µM | 29.5 µM |
| COCC(/C=N/N=C(N)N)=N\N=C(N)N | – | > 32.4 µM | > 32.4 µM |
| COc1ccccc1NC(=O)C(/C=N/C(N)=S)=C(\C)O | – | > 200 µM | > 200 µM |
| CN(/N=C/c1ccccc1C(=O)O)C1=NCCCCN1 | – | > 200 µM | > 200 µM |
| O=S1(=O)C(c2cccc(C(F)(F)F)c2)=C(O)c2cc3ccccc3nc21 | inactive | – | – |
| O=C1C[C@H](c2ccccc2)C2(C(=O)c3ccccc3C2=O)[C@@H](c2ccccc2)C1 | – | 51.3 µM | 102 µM |
| CC1CCc2c(sc3ncnc(N/N=C/c4ccc(Cl)c(Cl)c4)c23)C1 (stereo not given) | – | > 25.7 µM | > 25.7 µM |
| C=CC(C)(C)c1cc(O)c2oc3c(O)cccc3c(=O)c2c1O | – | > 151 µM | 37.2 µM |
| COc1cc(OC)c2c(c1)C(=O)c1ccccc1C2=O | inactive | – | – |
| OC1CCOC1(O)c1ccccn1 (stereo not given) | – | > 200 µM | > 200 µM |
| Cc1cc(Cl)ccc1NC(=O)C1C(=O)N(c2ccc(Cl)cc2C)C(=O)/C1=N\N (stereo not given) | inactive | – | – |
| CCSc1n/c(=C\c2ccco2)c2nnnn12 | – | > 50.1 µM | > 50.1 µM |
| COc1cc(C)cc2c1C(=O)C(NC(C)=O)=CC2=O | – | > 200 µM | 11.7 µM |
| CC1(C)CC(=O)C(CC(C(=O)C(=O)Nc2cc(C(F)(F)F)ccc2Cl)C(=O)c2ccco2)C(=O)C1 (stereo not given) | – | > 51.3 µM | 42.7 µM |
| C1C2CC3CC1CC(c1nn4c(C56CC7CC(CC(C7)C5)C6)nnc4s1)(C2)C3 | – | > 200 µM | > 200 µM |
| COc1cc(OC)c2nc3ccccc3c(NCCC[N+](C)(C)[O-])c2c1[N+](=O)[O-] | – | > 200 µM | 132 µM |
| CCOc1ccc(N=Cc2c3ccccc3nc3ccccc23)cc1 | inactive | – | – |

Source: PubChem BioAssay AID179 (DTP/NCI, 2004)
